For assay [1], the system named is C2C12 cells. Kind of assay: Change in muscle-related gene expression (qRT-PCR) upon treatment with hydrangenol or Hydrangea extract. The assay is classed as cell-based. The settings on record: C2C12 cells differentiated 5 days, 1 hour or 24 hours. On the procedure: Each sample obtained in Examples 1 and 2 was analyzed in regards to its effects on the change in gene expression involved in the gain of muscle mass and the mitochondrial biogenesis and electron transport chain (ETC). For this experiment, C2C12 cells were differentiated for 5 days and then treated with the sample of Example 1 (25 μg/ml) or Example 2 (2.5 μg/ml) for 1 hour or 24 hours, respectively. Then, Trizol was used to extract RNA from the cell, and cDNA was synthesized from the RNA (cDNA synthesis kit, Bio-Rad). Finally, a realtime PCR (qRT-PCR) was performed (Viia7, […] Biosystems) using the oligomers of Table 1 as primers.
In the experimental example, the extract of Hydrangea serrata is indicated as S; the extract of Hydrangea macrophylla as M; and hydrangenol as H. “0” means a control that was treated with vehicle.
In general terms: In qPCR the cycle at which signal appears reflects the starting amount.

Assay [2] concerns C2C12 cells. Kind of assay: Change in muscle-related protein expression (primary antibodies) upon treatment with hydrangenol or Hydrangea extract. The class given is cell-based. The settings on record: C2C12 cells differentiated 5 days; Example 1 25 ug/ml or Example 2 2.5 ug/ml; 1 hour or 24 hours; FIG. 9. On the procedure:
Each sample obtained in Examples 1 and 2 was analyzed in regards to its effects on the change in protein expression involved in the prevention of muscle diseases, the improvement of muscle functions, and the promotion of motor performance. For this experiment, C2C12 cells were differentiated for 5 days and then treated with the sample of Example 1 (25 ug/ml) or Example 2 (2.5 ug/ml) for 1 hour or 24 hours, respectively. Then, the cell was broken down with a modified LIPA buffer, and 20 ug of each sample was used for analysis. The primary antibodies of p-ERK (9101S: Cell Signaling), p-mTOR (ab109268, Abcam), mTOR (2972, Cell Signaling), p-p70S6K (9234, Cell Signaling), p-AMPK (4186, Cell Signaling), PGC1a (ab54481, Abcam), and ß-actin (A5316, Sigma) were used for the analysis.

Where [3] appears, read: Example 1 25 μg/ml or Example 2 2.5 μg/ml, FIG. 8.

Take `O=C1OC(c2ccc(O)cc2)Cc2cccc(O)c21` (centres unmarked) [Example 2, 8-hydroxy-3-(4-hydroxyphenyl)-3,4-dihydroisochromen-1-one]: in the assay with C2C12 cells [1] (setting [3]), the “expression of Myogenin” value is given as “promoted”, the “gene (mRNA) expression of PPARα” value is listed as “increase”, the “gene expression of MyoD” value was “promoted” and the “gene expression of PGC1α” value is recorded as “activate”. In the assay on C2C12 cells [1] (setting [3]), the “gene expression of PPARδ” value was “activate” and the “gene expression of SIRT1” value was “increased”. In addition, in the assay with C2C12 cells [1] (Example 2 2.5 μg/ml), the “amount of expression for most of genes shown in FIG. 8” value is reported as “regulated”. In the assay with C2C12 cells [2], the “activity of p-AMPK” value is listed as “increased”, the “phosphorylation of ERK (MAPK)” value was “through the phosphorylation of ERK”, the “phosphorylation of mTOR” value is “activated” and the “protein expression of PGC1α” value is given as “increased”.

Source of the values: patent US20240307348A1, “COMPOSITION FOR PREVENTING AND TREATING MUSCLE DISEASE, IMPROVING MUSCLE FUNCTION OR ENHANCING MOTOR PERFORMANCE COMPRISING HYDRANGENOL OR HYDRANGEA EXTRACT AS ACTIVE INGREDIENT” (COSMAXBIO CO., LTD., priority 2018, published 2024).
